Measurements published in US12410160B2 (Gilead Sciences, Inc., priority 2021, dated 2025).
pEC50, pIC50: −log10 of the molar value. Read-outs that look alike come from different tables or passages of the source.

Legend:
[1] = system: HepG2 cells; test: F1P Cell-Based Assay (EC50), 13C6-fructose-1-phosphate in HepG2 cells (cell culture medium or 50% human plasma)
Method: F1P Cell-Based Assay (EC50)
Compounds were serially diluted (1:3) in DMSO. The LabCyte ECHO Acoustic dispenser system was used to pre-spot the assay plates (Greiner, Catalog #781091) with 400 nL (200-fold final dilution in 80 μL assay volume) of compound. 25,000 cells/well HepG2 cells (ATCC Catalog #HB-8065) were plated in a 40 μL volume/well in DMEM medium with 4.5 g/L glucose, 1× Penicillin-Streptomycin-Glutamine, and 10% FBS, using a BioTEK dispenser in a biological hood and incubated overnight at 37° C., 5% CO2, 90% humidity. 40 μL/well serum free assay medium (for F1P assay in cell culture medium), or 40 μL/well 100% human plasma (for F1P assay in 50% human plasma) were then added to the plates on the following day, and incubated for 1 hour at 37° C., 5% CO2, 90% humidity. ^13C6-labelled fructose (Sigma, Catalog #587621) in sterile PBS was added to the plates at a final concentration of 5 mM. The plates were incubated for 2 hours at 37° C., 5% CO2, 90% humidity. The assay was quenched by washing the cells with sterile PBS and adding 60 μL/well of 80% (v/v) methanol, 2 mM ammonium acetate and 2.5 μM Crotonyl-CoA, using a BioTEK washer-dispenser system. The plates were then sealed and stored in the −80° C. freezer until ready for RapidFire readout. ^13C6-fructose-1-phosphate in individual wells was quantified using the Agilent RapidFire High-Throughput MS system in negative mode using a […]. Mobile Phase 1 consisted of 20 mM ammonium acetate with 0.05% acetic acid in 100% methanol. Mobile phase 2 consisted of 5 mM octylamine in water (pH adjusted to 5 using acetic acid). F1P signals in individual wells were normalized by crotonyl CoA internal control.

[2] = molecular target: human KHK-C (Homo sapiens (Human), UniProt P50053); test: KHK Biochemical Assay (IC50), ADP-Glo, KHK-C; conditions: average of at least two separate assays
Sequence of human KHK-C (P50053 whole entry): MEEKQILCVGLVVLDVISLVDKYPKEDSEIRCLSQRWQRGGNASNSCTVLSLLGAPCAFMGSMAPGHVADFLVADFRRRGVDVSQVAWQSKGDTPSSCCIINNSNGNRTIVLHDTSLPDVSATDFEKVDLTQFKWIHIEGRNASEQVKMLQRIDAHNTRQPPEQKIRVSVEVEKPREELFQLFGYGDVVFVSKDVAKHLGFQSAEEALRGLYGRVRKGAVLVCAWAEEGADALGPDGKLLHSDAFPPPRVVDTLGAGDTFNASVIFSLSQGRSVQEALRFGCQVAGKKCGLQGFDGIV
In short: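 Luminescent ADP-Glo read-out of ADP made by His-tagged KHK (BL21 (DE3) expression, Ni-NTA). Enzyme and compound sat together 30 min before ATP/fructose addition, then reacted 4 h at RT in Hepes pH 7.4 buffer with KCl, MgCl2, Triton-X. Quench 1 h, detection 1 h.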

[3] = Homo sapiens, HepG2, HepG2 cells, 50% human plasma, read-out: F1P 50% HP EC50
[4] = Homo sapiens, HepG2, read-out: F1P 10% FBS EC50, HepG2 cells, cell culture medium (10% FBS)
[5] = HepG2 cells, 50% human plasma, read-out: F1P 50% HP EC50
[6] = read-out: F1P 10% FBS EC50, HepG2 cells, cell culture medium (10% FBS)

pEC50 [1, 3]	pEC50 [1, 4]	pIC50 [2]	pEC50 [1, 5]	pEC50 [1, 6]	pIC50 ([2]; ADP-Glo)	Compound
8.20	8.32	9.00	–	–	–	C[C@H]1[C@H](O)CN1c1nc(-c2ccc([C@@]3(N)CCOC3)cc2)c2c(n1)C(F)(F)CC2 (single isomer, unassigned) [Example 517]
6.94	7.51	8.31	–	–	–	C[C@H]1[C@H](O)CN1c1nc(-c2cc(F)c3c(c2)CC[C@@H]3NS(C)(=O)=O)c2c(n1)C(F)(F)CC2 (single isomer, unassigned) [Example 526]
6.91	7.09	8.10	–	–	–	C[C@H]1[C@H](O)CN1c1nc(-c2cc(F)c3c(c2)CC[C@H]3NS(C)(=O)=O)c2c(n1)C(F)(F)CC2 (single isomer, unassigned) [Example 527]
–	–	8.05	6.36	7.26	–	COc1cc(-c2nc(N3C[C@@H](O)[C@@H]3C)nc3c2CCC3(F)F)cc2c1[C@H](NS(C)(=O)=O)CO2 (single isomer, unassigned) [Example 531]
7.24	7.82	8.14	–	–	–	CC[C@H]1CNC(=O)c2ccc(-c3nc(N4C[C@@H](O)[C@@H]4C)nc4c3CCC4(F)F)cc2O1 (single isomer, unassigned) [Example 592]
–	–	8.12	7.23	7.64	–	CC[C@@H]1CNC(=O)c2ccc(-c3nc(N4C[C@@H](O)[C@@H]4C)nc4c3CCC4(F)F)cc2O1 (single isomer, unassigned) [Example 593]
7.29	7.46	8.36	–	–	–	C[C@H]1[C@H](O)CN1c1nc(-c2ccc3c(c2)O[C@@H](CF)CNC3=O)c2c(n1)C(F)(F)CC2 (single isomer, unassigned) [Example 595]
7.87	7.91	8.70	–	–	–	C[C@H]1[C@H](O)CN1c1nc(-c2ccc3c(c2)O[C@H](CF)CNC3=O)c2c(n1)C(F)(F)CC2 (single isomer, unassigned) [Example 596]
7.26	7.97	9.00	–	–	–	C[C@H]1CCN1c1nc(-c2ccc3c(c2)[C@@H](NS(C)(=O)=O)CC3)c2c(n1)C(F)(F)CC2 (single isomer, unassigned) [Example 609]
–	–	8.46	7.51	7.79	–	C[C@H]1[C@H](O)CN1c1nc(-c2ccc3c(c2)[C@H](NS(C)(=O)=O)CO3)c2c(n1)C(F)(F)CC2 (single isomer, unassigned) [Example 615]
–	–	7.95	7.62	7.74	–	C[C@H]1[C@H](O)CN1c1nc(-c2cccc([C@@H]3CCS(=O)(=O)N3)c2)c2c(n1)C(F)(F)CC2 (single isomer, unassigned) [Example 618]
7.34	8.06	8.82	–	–	–	C[C@H]1[C@H](O)CN1c1nc(-c2ccc3c(c2)[C@@H](NS(C)(=O)=O)CC3)c2c(n1)C(F)(F)CC2 (single isomer, unassigned) [Example 622]
7.46	8.17	8.89	–	–	–	C[C@H]1[C@H](O)CN1c1nc(-c2ccc3c(c2)[C@H](NS(C)(=O)=O)CC3)c2c(n1)C(F)(F)CC2 (single isomer, unassigned) [Example 623]
< 6.30	7.10	7.97	–	–	–	C[C@H]1[C@H](O)CN1c1nc(-c2ccc3c(c2)C(C)(C)C[C@H]3NS(C)(=O)=O)c2c(n1)C(F)(F)CC2 (single isomer, unassigned) [Example 631]
7.76	7.65	8.51	–	–	–	C[C@H]1[C@H](O)CN1c1nc(-c2ccc3c(c2)S(=O)(=O)C[C@@H]3N)c2c(n1)C(F)(F)CC2 (single isomer, unassigned) [Example 662]
7.42	7.32	8.15	–	–	–	C[C@H]1[C@H](O)CN1c1nc(-c2ccc([C@@H](N)CC#N)cc2)c2c(n1)C(F)(F)CC2 (single isomer, unassigned) [Example 779]
< 6.30	< 6.30	7.01	–	–	–	NC1(c2ccc(-c3nc(N4CC(F)(F)[C@H]4CO)nc4c3CCC4(F)F)cc2)CS(=O)(=O)C1 (single isomer, unassigned) [Example 783]
7.04	6.93	8.10	–	–	–	NC1(c2ccc(-c3nc(N4CC(F)(F)[C@@H]4CO)nc4c3CCC4(F)F)cc2)CS(=O)(=O)C1 (single isomer, unassigned) [Example 784]
7.39	7.95	–	–	–	9.15	C[C@H]1[C@H](O)CN1c1nc(-c2cc(F)c3c(c2)OC[C@H]3NS(C)(=O)=O)c2c(n1)C(F)(F)CC2 (single isomer, unassigned) [Example 812]
6.95	7.20	8.12	–	–	–	C[C@H]1[C@H](O)CN1c1nc(-c2ccc3c(c2)CC[C@H]3NS(C)(=O)=O)c2c(n1)C(F)(F)CC2 [Example 473, N—((R)-5-(7,7-difluoro-2-((2S,3R)-3-hydroxy-2-methylazetidin-1-yl)-6,7-dihydro-5H-cyclopenta[d]pyrimidin-4-yl)-2,3-dihydro-1H-inden-1-yl)methanesulfonamide]
7.35	7.65	9.00	–	–	–	C[C@H]1[C@H](O)CN1c1nc(-c2ccc3c(c2)CCC32COC(=O)N2)c2c(n1)C(F)(F)CC2 (stereo partly drawn) [Example 474, 5-(7,7-difluoro-2-((2S,3R)-3-hydroxy-2-methylazetidin-1-yl)-6,7-dihydro-5H-cyclopenta[d]pyrimidin-4-yl)-2,3-dihydrospiro[indene-1,4′-oxazolidin]-2′-one]
7.59	8.22	9.40	–	–	–	COc1cc(-c2nc(N3C[C@@H](O)[C@@H]3C)nc3c2CCC3(F)F)cc2c1C(NS(C)(=O)=O)CO2 (stereo partly drawn) [Example 477, N-(6-(7,7-difluoro-2-((2S,3R)-3-hydroxy-2-methylazetidin-1-yl)-6,7-dihydro-5H-cyclopenta[d]pyrimidin-4-yl)-4-methoxy-2,3-dihydrobenzofuran-3-yl)methanesulfonamide]
7.63	8.03	9.22	–	–	–	[2H]C1([2H])[C@@H](O)[C@H](C)N1c1nc(-c2ccc3c(c2)OC[C@@H]3NS(C)(=O)=O)c2c(n1)C(F)(F)CC2 [Example 480, N—((R)-6-(7,7-difluoro-2-((2S,3R)-3-hydroxy-2-methylazetidin-1-yl-4,4-d2)-6,7-dihydro-5H-cyclopenta[d]pyrimidin-4-yl)-2,3-dihydrobenzofuran-3-yl)methanesulfonamide]
7.37	8.18	9.52	–	–	–	C[C@H]1[C@H](O)CN1c1nc(-c2ccc3c(c2)OCC32COC(=O)N2)c2c(n1)C(F)(F)CC2 (stereo partly drawn) [Example 481, 6-(7,7-difluoro-2-((2S,3R)-3-hydroxy-2-methylazetidin-1-yl)-6,7-dihydro-5H-cyclopenta[d]pyrimidin-4-yl)-2H-spiro[benzofuran-3,4′-oxazolidin]-2′-one]
6.61	6.86	7.13	–	–	–	C[C@H]1CCN1c1nc2c(c(-c3cnc(C4(N)COC4)cn3)n1)CCC2 [Example 507, (S)-3-(5-(2-(2-methylazetidin-1-yl)-6,7-dihydro-5H-cyclopenta[d]pyrimidin-4-yl)pyrazin-2-yl)oxetan-3-amine]
6.59	6.90	7.21	–	–	–	CN=S(C)(=O)c1cccc(-c2nc(N3C[C@@H](O)[C@@H]3C)nc3c2CCC3(F)F)c1 (stereo partly drawn) [Example 508, (3-(7,7-difluoro-2-((2S,3R)-3-hydroxy-2-methylazetidin-1-yl)-6,7-dihydro-5H-cyclopenta[d]pyrimidin-4-yl)phenyl)(methyl)(methylimino)-λ^6-sulfanone]
7.24	7.60	7.70	–	–	–	C[C@H]1[C@H](O)CN1c1nc(-c2cccc(S(C)(=O)=O)c2)c2c(n1)C(F)(F)CC2 [Example 509, (2S,3R)-1-(7,7-difluoro-4-(3-(methylsulfonyl)phenyl)-6,7-dihydro-5H-cyclopenta[d]pyrimidin-2-yl)-2-methylazetidin-3-ol]
7.34	7.46	7.68	–	–	–	CCS(=N)(=O)c1cccc(-c2nc(N3C[C@@H](O)[C@@H]3C)nc3c2CCC3(F)F)c1 (stereo partly drawn) [Example 511, (3-(7,7-difluoro-2-((2S,3R)-3-hydroxy-2-methylazetidin-1-yl)-6,7-dihydro-5H-cyclopenta[d]pyrimidin-4-yl)phenyl)(ethyl)(imino)-λ^6-sulfanone]
